Experiments:
[1] = tested on: direct-patient pancreatic cancer xenografts; assay: Xenograft treatment, relative tumor growth inhibition (TGI); type: in vivo, mice
Source text: Four- to six-week-old female athymic (nu/nu) mice were purchased from Harlan (Harlan Laboratories, Washington, D.C.). The research protocol was approved by the Johns Hopkins University Animal Use and Care Committee and animals were maintained in accordance to guidelines of the American Association of Laboratory Animal Care. Xenografts obtained from F1 mice were excised and cut into small ˜3×3×3 mm fragments and then implanted subcutaneously in a group of five to six mice for each patient, with two small fragments in each mouse (F2) as described above for the original carcinoma. Half of the rest of the carcinoma was cryopreserved in liquid nitrogen and the other half is processed for biological studies. When the carcinoma reached a size of 1,500 mm^3, they were excised, cut into ˜3×3×3 mm fragments, and transplanted to the final cohort of mice to be treated with the drugs (F3 and successive passages). Further details of the establishment of the direct-patient pancreatic cancer xenografts are described in Rubio-Viqueira B, Jimeno A, Cusatis G, et al. An In vivo Platform for Translational Drug Development in Pancreatic Cancer. Clin Cancer Res 2006 12:4652-61.
Gemcitabine (Eli Lilly, Indianapolis, Ind.) was dissolved in saline. In some embodiments, docetaxel (Sanofi-Aventis, Bridgewater, N.J.) was dissolved in 50% ethanol and 50% DMSO. In other embodiments, docetaxel (Sanofi-Aventis, Bridgewater, N.J.) was dissolved in ethanol/polysorbate 80 as a stock solution and diluted 10-fold in 5% glucose for in vivo studies. Temsirolimus (Wyeth Research, Colleville, Pa.) was dissolved in 10% ethanol, 10% pluronic, and 80% PBS. All drugs were freshly prepared and used at an injection volume of 0.2 mL/20 g body weight. Drug doses and treatment schedules were obtained from published studies.
Xenografts from this second mouse-to-mouse passage (F3) were allowed to grow to a size of ˜200 mm^3, at which time five-to-six mice were randomly assigned to control and treatment groups. […] For docetaxel treatment group, mice were treated with 20 mg/kg once a week via intraperitoneal injection. For temsirolimus treatment group, mice were treated with 20 mg/kg/day via intraperitoneal injection. Mice were treated for 21-28 days, monitored daily for signs of toxicity, and were weighed thrice a week. Tumor size was evaluated thrice a week by caliper measurements using the following formula: tumor volume=[length×width^2]/2 as reported by van de Vijver M J, He Y D, van't Veer L J, et al. A Gene-Expression Signature as a Predictor of Survival in Breast Cancer. N Engl J Med 2002 347:1999-2009.
(§1) Relative tumor growth index (TGI) was calculated as TGI=(Ti−T0/Ci−C0) if Ti>T0 (indicates tumor growth inhibition) and TGI=(Ti−T0) if Ti≦T0 (indicates tumor regression). T and C represent tumor size in the treated and control group at the last of experiment, respectively; T0 and C0 represent tumor size in the treated and control group at the start of treatment, respectively.

[2] = tested on: patient-derived xenografts refractory to gemcitabine; assay: Pre-clinical second-line study in xenografts refractory to gemcitabine (TGI); type: in vivo, mice; conditions: for TGI: treated with gemcitabine (first line)
Description: FIG. 11 illustrates a pre-clinical design.
FIG. 12 illustrates validation on the xenografts of FIG. 11 based on prediction according to the present invention. Four xenograft cases were used. […] A case is defined as a responder to the drug treatment if Tumor Growth Inhibition (TGI) is <20%. Negative TGI values indicate tumor regression.
as §1
Seven FDA approved anticancer agents (capecitabine, cisplatin, docetaxel, doxorubicin, etoposide, irinotecan and oxaliplatin) were used as potential second line of drugs for selection according to the present invention. The one-size-fits-all treatment was erlotinib, an FDA approved targeted therapy for advanced pancreatic cancer. See Moore M J, Goldstein D, Hamm J, et al. Erlotinib plus gemcitabine compared with gemcitabine alone in patients with advanced pancreatic cancer: a phase Ill trial of the National Cancer Institute of Canada Clinical Trials Group. J Clin Oncol 25:1960-06 2007. […] Xenograft models of these cases were randomly assigned to (i) control, (ii) erlotinib arm (one-size-fits-all second line treatment) and (iii) molecular mimicry arm (i.e., drug selection according to the present invention). For the molecular mimicry arm, the baseline gene expression profiles of these cases were connected the NCI reference panel using GS-CMAP, and one of the seven anticancer agents was assigned to the case based on comparing the GI50 among these drugs. Molecular mimicry predicted that JH033 and JH034 are sensitive to docetaxel, PANC185 is sensitive to irinotecan and PANC219 is sensitive to doxorubicin. These cases were treated with the molecular mimicry choice of drugs and tumor volumes were measured. At the end of the experiment, xenografts treated with molecular mimicry choice of drugs had higher tumor growth inhibition than their litter mates treated with erlotinib (FIGS. 12 and 13).

SMILES: Nc1ccn([C@@H]2O[C@H](CO)[C@@H](O)C2(F)F)c(=O)n1 [gemcitabine]
- average TGI ([1]; five xenografts connected to gemcitabine sensitive NCI-60 cell lines): −24%
- responders (TGI less than −30%, RECIST criterion) ([1]; of thirty xenografts, gemcitabine, PANC194, PANC266, PANC294, PANC140, PANC253): five responders
- TGI ([1]; xenograft PANC194, gemcitabine): −63%
- median TGI ([2]; four xenograft cases (PANC185, PANC219, JH033, JH034)): 36.5%
- TGI ([2]; xenograft JH033): more than 20%
- TGI ([2]; xenograft JH034): more than 20%
- TGI ([2]; xenograft PANC185): more than 20%
- TGI ([2]; xenograft PANC219): more than 20%

From US20090221522A1, “METHODS TO CORRECT GENE SET EXPRESSION PROFILES TO DRUG SENSITIVITY” (The Johns Hopkins University, priority 2008, published 2009)
